Measurements reported in patent publication US20160145247A1, “Aminomethyl-Biaryl Derivatives Complement Factor D inhibitors and uses thereof” (NOVARTIS AG, priority 2013, published 2016).

The molecules below were run against T1, factor D (Homo sapiens, UniProt P00746) (assay: factor D inhibition assay of Biological Example 2).
T1 construct: made in house; host or cells: E. coli
Format: biochemical

T1 sequence (P00746 26-253): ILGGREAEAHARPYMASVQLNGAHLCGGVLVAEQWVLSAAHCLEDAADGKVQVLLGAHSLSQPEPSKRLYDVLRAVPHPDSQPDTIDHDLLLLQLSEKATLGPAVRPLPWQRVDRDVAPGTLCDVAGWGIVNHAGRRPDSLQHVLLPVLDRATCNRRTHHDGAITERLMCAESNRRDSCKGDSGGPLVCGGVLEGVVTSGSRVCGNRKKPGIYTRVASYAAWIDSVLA

Row | IC50 [nM] | Compound
1 | 11 | C[C@H](N)c1cccc(-c2cc(CCCF)cc(COc3ccccc3CC(=O)O)c2)c1F [Example 270, (S)-2-(2-((3′-(1-aminoethyl)-2′-fluoro-5-(3-fluoropropyl)-[1,1′-biphenyl]-3-yl)methoxy)phenyl)acetic acid]
2 | 122 | C[C@@H](O)[C@@H](N)c1cccc(-c2cccc(COc3ccccc3CC(=O)O)c2)c1 [Example 190-G]
3 | 9 | NCc1cccc(-c2cc(OC[C@H]3CCCO3)cc(C(=O)Nc3ccccc3CC(=O)O)c2)c1 [Example 74-D, (R)-2-(2-(3′-(Aminomethyl)-5-((tetrahydrofuran-2-yl)methoxy)-[1,1′-biphenyl]-3-ylcarboxamido)phenyl)acetic acid]
4 | 7 | C[C@@H](N)c1cccc(-c2cc(COc3ccccc3CC(=O)O)cc(N(C)CC3CCCO3)c2)c1F (some centres unmarked) [Example 216-G]
5 | 58 | COCCOc1cc(C(=O)Nc2ccccc2CC(=O)O)cc(-c2cccc(CN)c2)c1 [Example 72-B, 2-(2-(3′-(Aminomethyl)-5-(2-methoxyethoxy)-[1,1′-biphenyl]-3-ylcarboxamido)phenyl)acetic acid]
6 | 9 | C[C@@H](N)c1cccc(-c2cc(CCCF)cc(COc3ccccc3CC(=O)O)c2)c1F [Example 269-E, (R)-2-(2-((3′-(1-aminoethyl)-2′-fluoro-5-(3-fluoropropyl)-[1,1′-biphenyl]-3-yl)methoxy)phenyl)acetic acid]
7 | 24 | C[C@@H](N)c1cccc(-c2cc(COc3ccccc3CC(=O)O)cc(OCC3(C)CC3)c2)c1 [Example 261, (R)-2-(2-((3′-(1-aminoethyl)-5-((1-methylcyclopropyl)methoxy)-[1,1′-biphenyl]-3-yl)methoxy)phenyl)acetic acid]
8 | 1080 | N[C@@H](c1cccc(-c2cccc(COc3ccccc3CC(=O)O)c2)c1)C1CC1 [Example 196-G]
9 | 2 | C[C@@H](N)c1cccc(-c2cc(COc3ccccc3CC(=O)O)cc(NCCF)c2)c1F [Example 216-K]
10 | 399 | NCc1cccc(-c2cccc(C(=O)Nc3cc(Cl)ccc3CC(=O)O)c2)c1 [Example 17-B, 2-(2-(3′-(Aminomethyl)-[1,1′-biphenyl]-3-ylcarboxamido)-4-chlorophenyl)acetic acid]
11 | 12 | NC(CF)c1cccc(-c2cc(CCc3ccncc3)cc(COc3ccccc3CC(=O)O)c2)c1F (centres unmarked) [Example 216-Q]
12 | 4 | NCc1cccc(-c2ccc3c(c2)C(Oc2ccccc2CC(=O)O)CCO3)c1 (single isomer, unassigned) [177 b) (tr = 3.2 min), (+) or (−)-2-(2-((6-(3-(aminomethyl)phenyl)chroman-4-yl)oxy)phenyl)acetic acid]
13 | 21 | C[C@@H](N)c1cccc(-c2cc(Cl)cc(COc3ccccc3CC(=O)O)c2)c1F [Example 216-S]
14 | 14 | Cc1ccc(S(=O)(=O)n2ncc3c(COc4ccccc4CC(=O)O)cc(-c4cccc([C@H](N)CO)c4)cc32)cc1 [Example 186, (S)-2-(2-((6-(3-(1-Amino-2-hydroxyethyl)phenyl)-1-tosyl-1H-indazol-4-yl)methoxy)phenyl)acetic acid]
15 | 9 | C[C@@H](N)c1cccc(-c2cc(COc3ccccc3CC(=O)O)cc(OCC3CC3)c2)c1F [Example 148, (R)-2-(2-((3′-(1-Aminoethyl)-5-(cyclopropylmethoxy)-2′-fluoro-[1,1′-biphenyl]-3-yl)methoxy)phenyl)acetic acid]
16 | 30 | CCc1cc(COc2ccccc2CC(=O)O)cc(-c2cccc([C@H](N)CO)c2)c1 [Example 110-C, (S)-2-(2-((3′-(1-Amino-2-hydroxyethyl)-5-ethyl-[1,1′-biphenyl]-3-yl)methoxy)phenyl)acetic acid]
17 | 12 | Cc1cc(COc2ccccc2CC(=O)O)cc(-c2cccc([C@@H](C)N)c2F)c1 [Example 210-C, (R)-2-(2-((3′-(1-aminoethyl)-2′-fluoro-5-methyl-[1,1′-biphenyl]-3-yl)methoxy)phenyl)acetic acid]
18 | 10 | NCc1cccc(-c2cc(COc3ccccc3CC(=O)O)cc(C3CC3)c2)c1 [Example 103-B, 2-(2-((3′-(Aminomethyl)-5-cyclopropyl-[1,1′-biphenyl]-3-yl)methoxy)phenyl)acetic acid]
19 | 5050 | COC(=O)Cc1ccccc1NC(=O)c1ccc(OC)c(-c2cccc(CN)c2)c1 [Example 8-A, Methyl 2-(2-(3′-(aminomethyl)-6-methoxy-[1,1′-biphenyl]-3-ylcarboxamido)phenyl)acetate]
20 | 22 | Cn1nc(C2CC2)cc1Nc1cc(C(=O)Nc2ccccc2CC(=O)O)cc(-c2cc(F)cc(CN)c2)c1 [Example 78-B, 2-(2-(3′-(Aminomethyl)-5-((3-cyclopropyl-1-methyl-1H-pyrazol-5-yl)amino)-5′-fluoro-[1,1′-biphenyl]-3-ylcarboxamido)phenyl)acetic acid]
21 | 1930 | NCc1cccc(-c2c[nH]c(C(=O)Nc3ccccc3CC(=O)O)n2)c1 [Example 47, 2-(2-(4-(3-(Aminomethyl)phenyl)-1H-imidazole-2-carboxamido)phenyl)acetic acid]

More lines, now with the values behind:

Row | Compound | IC50 [nM]
22 | C[C@@H](N)c1cccc(-c2cc(COc3ccccc3CC(=O)O)cc(C3CCCC3)c2)c1F [Example 244, (R)-2-(2-((3′-(1-aminoethyl)-5-cyclopentyl-2′-fluoro-[1,1′-biphenyl]-3-yl)methoxy)phenyl)acetic acid] | 3
23 | N[C@H](CC(F)(F)F)c1cccc(-c2cccc(COc3ccccc3CC(=O)O)c2)c1 [Example 196-H] | 1180
24 | COCCNc1cc(COc2ccccc2CC(=O)O)cc(-c2cccc([C@H](N)CO)c2)c1 [Example 84, (S)-2-(2-((3′-(1-Amino-2-hydroxyethyl)-5-((2-methoxyethyl)amino)-[1,1′-biphenyl]-3-yl)methoxy)phenyl)acetic acid] | 5
25 | C[C@@H](N)c1cccc(-c2cc(O)cc(COc3ccccc3CC(=O)O)c2)c1F [Example 214-R] | 7
26 | NC(CF)c1cccc(-c2cccc(COc3ccccc3CC(=O)O)c2)c1 (single isomer, unassigned; (+)) [Example 190-B (+), (+)-2-(2-((3′-(1-amino-2-fluoroethyl)-[1, 1′-biphenyl]-3-yl)methoxy)phenyl)acetic acid] | 9
27 | C[C@@H](N)c1cccc(-c2cc(NCC(F)F)cc(N(C)Cc3ccccc3CC(=O)O)c2)c1F [Example 216-AC] | 33
28 | C[C@@H](N)c1cccc(-c2cc(NCC3CC3)c3c(c2)C(Oc2ccccc2CC(=O)O)CCO3)c1F (some centres unmarked) [Example 216-X] | 14
29 | CC(=O)Nc1cc(C(=O)Nc2ccccc2CC(=O)O)cc(-c2cccc(CN)c2)c1 [Example 5, 2-(2-(5-Acetamido-3′-(aminomethyl)-[1,1′-biphenyl]-3-ylcarboxamido)phenyl)acetic acid] | 45
30 | C[C@@H](N)c1cccc(-c2cc(COc3ccccc3CC(=O)O)cc(NCC3CC3(F)F)c2)c1F (stereo partly drawn) [Example 281-E, 2-(2-((3′-((R)-1-Aminoethyl)-5-(((2,2-difluorocyclopropyl)methyl)amino)-2′-fluoro-[1,1′-biphenyl]-3-yl)methoxy)phenyl)acetic acid] | 14
31 | NC(=O)Cc1ccccc1OCc1cccc(-c2cccc([C@H](N)CO)c2)c1 [Example 146-C, (S)-2-(2-((3′-(1-Amino-2-hydroxyethyl)-[1,1′-biphenyl]-3-yl)methoxy)phenyl)acetamide] | 18400
32 | C[C@@H](N)c1cccc(-c2cc(COc3ccccc3CC(=O)O)cc(S(C)(=O)=O)c2)c1F [Example 250-D, (R)-2-(2-((3′-(1-aminoethyl)-2′-fluoro-5-(methylsulfonyl)-[1,1′-biphenyl]-3-yl)methoxy)phenyl)acetic acid] | 113
33 | N[C@H](CO)c1cc(-c2cccc(COc3ccccc3CC(=O)O)c2)ccn1 [Example 142-G] | 12
34 | NCc1cc(F)cc(-c2cc(C(=O)Nc3ccccc3CC(=O)O)cc(N3CCOCC3)c2)c1 [Example 77-B, 2-(2-(3′-(Aminomethyl)-5′-fluoro-5-morpholino-[1,1′-biphenyl]-3-ylcarboxamido)phenyl)acetic acid] | 55
35 | COc1ccc(C)c(Nc2cc(C(=O)Nc3ccccc3CC(=O)O)cc(-c3cc(F)cc(CN)c3)c2)c1 [Example 14-A] | 15
36 | NCc1cccc(-c2cccc(COc3cc(C(N)=O)ccc3CC(=O)O)c2)c1 [Example 294-C] | 10
37 | CCC[C@@H](N)c1cccc(-c2cc(COc3ccccc3CC(=O)O)cc(N3CCOCC3)c2)c1F [Example 198-C, (R)-2-(2-((3′-(1-Aminobutyl)-2′-fluoro-5-morpholino-[1,1′-biphenyl]-3-yl)methoxy)phenyl)acetic acid] | 199
38 | Cc1ccc(COc2ccccc2CC(=O)O)cc1-c1cccc([C@@H](C)N)c1 [Example 116-M] | 1230
39 | NCc1cccc(-c2cc(COc3ccccc3CC(=O)O)cc(COc3ccccc3CC(=O)O)c2)c1 [Example 116-C] | 4
40 | NCc1cccc(-c2cccc(C(=O)Nc3ccccc3CC(=O)O)c2)c1F [Example 37, 2-(2-(3′-(Aminomethyl)-2′-fluoro-[1,1′-biphenyl]-3-ylcarboxamido)phenyl)acetic acid] | 41
41 | NCc1cccc(-c2ccc3c(c2)C(Oc2ccccc2CC(=O)O)CCC3)c1 (single isomer, unassigned) [175 b) (tr = 9.5 min), (−) or (+)-(2-((7-(3-(aminomethyl)phenyl)-1,2,3,4-tetrahydronaphthalen-1-yl)oxy)phenyl)acetic acid] | 250
42 | COCCNc1cc(C(=O)Nc2ccccc2CC(=O)O)cc(-c2cccc([C@H](N)CO)c2)c1 [Example 83-D, (S)-2-(2-(3′-(1-amino-2-hydroxyethyl)-5-((2-methoxyethyl)amino)-[1,1′-biphenyl]-3-ylcarboxamido)phenyl)acetic acid] | 22
43 | C[C@H](N)c1cccc(-c2cc(COc3ccccc3CC(=O)O)cc(OCc3nccs3)c2)c1F [Example 214-N] | 5
44 | CC(C)CC(=O)Nc1cc(C(=O)Nc2ccccc2CC(=O)O)cc(-c2cc(F)cc(CN)c2)c1 [Example 98, 2-(2-(3′-(Aminomethyl)-5′-fluoro-5-(3-methylbutanamido)-[1,1′-biphenyl]-3-ylcarboxamido)phenyl)acetic acid] | 4
